{"source": "PubChem BioAssay AID330", "about": "(DTP/NCI, 2004)", "test_system": "P388 leukemia ip, CD2F1 mice, survival T/C", "assay": "NCI In Vivo Anticancer Drug Screen. Data for tumor model P388 Leukemia (intraperitoneal) in CD2F1 (CDF1) mice", "settings": "endpoint: median survival time, higher = longer survival", "how_it_was_run": "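Mice carrying the transplanted tumor received test compound or vehicle. Survival was recorded in each group, and the value is the treated-group measurement divided by that of the vehicle-treated control group.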", "key": {"[1]": {"settings": "dose: 6.25 mg/kg/injection, schedule: Q04DX003 (ip), vehicle: saline with Tween-80"}, "[2]": {"settings": "dose: 25.0 mg/kg/injection, schedule: Q04DX003 (ip), vehicle: saline with Tween-80"}, "[3]": {"settings": "dose: 50.0 mg/kg/injection, schedule: Q04DX003 (ip), vehicle: saline with Tween-80"}, "[4]": {"settings": "dose: 100.0 mg/kg/injection, schedule: Q01DX009 (ip), vehicle: saline with Tween-80"}, "[5]": {"settings": "dose: 100.0 mg/kg/injection, schedule: Q01DX009 (ip), vehicle: saline"}, "[6]": {"settings": "dose: 200.0 mg/kg/injection, schedule: Q01DX009 (ip), vehicle: saline with Tween-80"}, "[7]": {"settings": "dose: 200.0 mg/kg/injection, schedule: Q01DX009 (ip), vehicle: saline"}, "[8]": {"settings": "dose: 50.0 mg/kg/injection, schedule: Q01DX009 (ip), vehicle: saline"}}, "note": "Where “and” joins values, the source holds several entries; their conditions need not be identical. Equal entries are not always repeated. Inconclusive results and toxic doses are left out.", "data": [{"smiles": "COc1cc2c(cc1OC)C(Cc1cccs1)=NCC2", "values": [{"measurement": "T/C", "setting": "dose: 50.0 mg/kg/injection, schedule: Q01DX005 (ip), vehicle: Klucel (hydroxypropylcellulose) (HPC)", "result": "100 % of control"}, {"measurement": "T/C", "setting": "dose: 100.0 mg/kg/injection, schedule: Q01DX005 (ip), vehicle: Klucel (hydroxypropylcellulose) (HPC)", "result": "94 % of control"}]}, {"smiles": "CC(=N)C(C#N)C(=S)SCCC#N", "note": "(configuration not stated)", "values": [{"measurement": "T/C", "setting": "dose: 50.0 mg/kg/injection, schedule: Q01DX009 (ip), vehicle: Klucel (hydroxypropylcellulose) (HPC)", "result": "97 % of control"}, {"measurement": "T/C", "setting": "dose: 100.0 mg/kg/injection, schedule: Q01DX009 (ip), vehicle: Klucel (hydroxypropylcellulose) (HPC)", "result": "89 % of control"}, {"measurement": "T/C", "setting": "dose: 200.0 mg/kg/injection, schedule: Q01DX009 (ip), vehicle: Klucel (hydroxypropylcellulose) (HPC)", "result": "106 % of control"}]}, {"smiles": "Clc1cccc(Cl)c1C(Nc1nncs1)Nc1nncs1", "values": [{"measurement": "T/C", "setting": "dose: 50.0 mg/kg/injection, schedule: Q04DX002 (ip), vehicle: saline with Tween-80", "result": "124 % of control"}, {"measurement": "T/C", "setting": "dose: 200.0 mg/kg/injection, schedule: Q04DX002 (ip), vehicle: saline with Tween-80", "result": "162 % of control and 174 % of control"}, {"measurement": "T/C", "setting": "dose: 400.0 mg/kg/injection, schedule: Q04DX002 (ip), vehicle: saline with Tween-80", "result": "186 % of control and 192 % of control"}]}, {"smiles": "CCN=C(N)Nc1ccc(NC(=O)c2ccc(C(=O)Nc3ccc(NC(N)=NCC)cc3)cc2)cc1", "values": [{"measurement": "T/C", "setting": "dose: 3.13 mg/kg/injection, schedule: Q01DX009 (ip), vehicle: saline with Tween-80", "result": "163 % of control"}, {"measurement": "T/C", "setting": "dose: 3.13 mg/kg/injection, schedule: Q04DX003 (ip), vehicle: saline with Tween-80", "result": "113 % of control"}, {"measurement": "T/C", "setting": "dose: 6.25 mg/kg/injection, schedule: Q01DX009 (ip), vehicle: saline with Tween-80", "result": "168 % of control"}, {"measurement": "T/C", "setting": "[1]", "result": "122 % of control"}, {"measurement": "T/C", "setting": "dose: 12.5 mg/kg/injection, schedule: Q01DX009 (ip), vehicle: saline with Tween-80", "result": "109 % of control and 113 % of control"}, {"measurement": "T/C", "setting": "[2]", "result": "200 % of control"}, {"measurement": "T/C", "setting": "[3]", "result": "181 % of control"}]}, {"smiles": "CCCCCCC(=O)CC(SCCO)c1ccc(Cl)c(Cl)c1", "note": "(configuration not stated)", "values": [{"measurement": "T/C", "setting": "dose: 100.0 mg/kg/injection, schedule: Q04DX003 (ip), vehicle: suspension in saline", "result": "99 % of control"}, {"measurement": "T/C", "setting": "dose: 200.0 mg/kg/injection, schedule: Q04DX003 (ip), vehicle: suspension in saline", "result": "104 % of control"}, {"measurement": "T/C", "setting": "dose: 400.0 mg/kg/injection, schedule: Q04DX003 (ip), vehicle: suspension in saline", "result": "104 % of control"}]}, {"smiles": "Cc1nc2[nH][nH]c(=O)c2nc1C", "values": [{"measurement": "T/C", "setting": "[4]", "result": "100 % of control"}, {"measurement": "T/C", "setting": "[5]", "result": "108 % of control"}, {"measurement": "T/C", "setting": "[6]", "result": "96 % of control"}, {"measurement": "T/C", "setting": "[7]", "result": "102 % of control"}, {"measurement": "T/C", "setting": "dose: 400.0 mg/kg/injection, schedule: Q01DX009 (ip), vehicle: saline with Tween-80", "result": "94 % of control"}, {"measurement": "T/C", "setting": "dose: 400.0 mg/kg/injection, schedule: Q01DX009 (ip), vehicle: saline", "result": "102 % of control"}, {"measurement": "T/C", "setting": "dose: 600.0 mg/kg/injection, schedule: Q01DX009 (ip), vehicle: saline with Tween-80", "result": "94 % of control"}, {"measurement": "T/C", "setting": "dose: 600.0 mg/kg/injection, schedule: Q01DX009 (ip), vehicle: saline", "result": "98 % of control"}]}, {"smiles": "NC(=O)N/N=C1/CCC(OC(=O)c2ccccc2)CC1CC(=O)O", "note": "(configuration not stated)", "values": [{"measurement": "T/C", "setting": "dose: 50.0 mg/kg/injection, schedule: Q01DX005 (ip), vehicle: saline with Tween-80", "result": "100 % of control"}, {"measurement": "T/C", "setting": "dose: 100.0 mg/kg/injection, schedule: Q01DX005 (ip), vehicle: saline with Tween-80", "result": "100 % of control"}, {"measurement": "T/C", "setting": "dose: 200.0 mg/kg/injection, schedule: Q01DX005 (ip), vehicle: saline with Tween-80", "result": "100 % of control"}]}, {"smiles": "CC(C)C1(C(C)C)OCCO1", "values": [{"measurement": "T/C", "setting": "[8]", "result": "100 % of control"}, {"measurement": "T/C", "setting": "[5]", "result": "109 % of control"}, {"measurement": "T/C", "setting": "[7]", "result": "109 % of control"}]}, {"smiles": "O=C1C2C3C=CC(C3)C2C(=O)C2(CO)OC12", "note": "(configuration not stated)", "values": [{"measurement": "T/C", "setting": "dose: 62.5 mg/kg/injection, schedule: Q04DX002 (ip), vehicle: saline", "result": "97 % of control"}, {"measurement": "T/C", "setting": "dose: 125.0 mg/kg/injection, schedule: Q04DX002 (ip), vehicle: saline", "result": "95 % of control"}, {"measurement": "T/C", "setting": "dose: 250.0 mg/kg/injection, schedule: Q04DX002 (ip), vehicle: saline", "result": "97 % of control"}]}, {"smiles": "Cc1ccc(-c2nc3ncnc(N)c3[nH]2)cc1", "values": [{"measurement": "T/C", "setting": "[1]", "result": "100 % of control"}, {"measurement": "T/C", "setting": "dose: 12.5 mg/kg/injection, schedule: Q04DX003 (ip), vehicle: saline with Tween-80", "result": "100 % of control"}, {"measurement": "T/C", "setting": "[2]", "result": "100 % of control and 107 % of control and 114 % of control"}, {"measurement": "T/C", "setting": "[3]", "result": "102 % of control and 113 % of control"}, {"measurement": "T/C", "setting": "dose: 100.0 mg/kg/injection, schedule: Q04DX003 (ip), vehicle: saline with Tween-80", "result": "108 % of control and 124 % of control"}, {"measurement": "T/C", "setting": "dose: 200.0 mg/kg/injection, schedule: Q04DX003 (ip), vehicle: saline with Tween-80", "result": "116 % of control"}]}, {"smiles": "[O-][n+]1ccc(C2CO2)cc1", "note": "(configuration not stated)", "values": [{"measurement": "T/C", "setting": "[8]", "result": "93 % of control"}, {"measurement": "T/C", "setting": "[5]", "result": "101 % of control"}, {"measurement": "T/C", "setting": "[7]", "result": "98 % of control"}]}, {"smiles": "O=C(O)C1=CC(c2ccccc2O)=NCCN1", "values": [{"measurement": "T/C", "setting": "dose: 15.0 mg/kg/injection, schedule: Q01DX005 (ip), vehicle: saline with Tween-80", "result": "97 % of control and 98 % of control"}, {"measurement": "T/C", "setting": "dose: 30.0 mg/kg/injection, schedule: Q01DX005 (ip), vehicle: saline with Tween-80", "result": "102 % of control and 105 % of control"}, {"measurement": "T/C", "setting": "dose: 60.0 mg/kg/injection, schedule: Q01DX005 (ip), vehicle: saline with Tween-80", "result": "114 % of control and 97 % of control"}, {"measurement": "T/C", "setting": "dose: 120.0 mg/kg/injection, schedule: Q01DX005 (ip), vehicle: saline with Tween-80", "result": "103 % of control and 107 % of control"}]}, {"smiles": "COc1ccc(CC2C(=O)NC(C)C(=O)N(C)C3C(=O)N(C)C(Cc4ccc(OC(C)=O)c(c4)Oc4ccc(cc4)C3OC(C)=O)C(=O)NC(C)C(=O)NC(C)C(=O)N2C)cc1", "note": "(configuration not stated)", "values": [{"measurement": "T/C", "setting": "dose: 2.0 mg/kg/injection, schedule: Q01DX009 (ip), vehicle: none", "result": "154 % of control"}]}, {"smiles": "Cc1nnc2n1N=C1CC(C)(C)CC(=O)C1S2", "note": "(configuration not stated)", "values": [{"measurement": "T/C", "setting": "dose: 50.0 mg/kg/injection, schedule: Q01DX009 (ip), vehicle: saline with Tween-80", "result": "101 % of control"}, {"measurement": "T/C", "setting": "[4]", "result": "102 % of control"}, {"measurement": "T/C", "setting": "[6]", "result": "94 % of control"}]}]}
